Measurements: patent US4180572A, “Lipogenesis control by esters of benzoxazinecarboxylic acids” (Shell Oil Company, priority 1978, dated 1979)
Structures can show the parent of a compound that is named as a salt.

test system: swine adipose tissue; assay: Inhibition of lipogenesis (lipid synthesis from glucose-U-14C) in swine adipose tissue slices; type: cell-based; details: Sus scrofa, 100 micrograms per milliliter, 37° C., 2 hours, glucose-U14C, insulin, 5% DMSO, triplicate, read-out: Percent Inhibition (of lipogenesis compared to control)
Text: The manner in which they cause this effect is not known with certainty; it is believed that they interfere with the synthesis of fatty acids in the tissue. Their effectiveness for this purpose has been ascertained by immersing samples of swine adipose tissue in a liquid medium containing radioactive glucose and the test chemical for a period of time, then isolating the lipid from the treated tissue and determining the up-take of the radioactive carbon by means of scintillation counting techniques. These tests were conducted in swine adipose tissue because in swine the primary site of lipogenesis--i.e., fatty acid synthesis--appearsto be adipose tissue. […] 150 milligrams of slices of swine adipose tissue were incubated at 37° C. for 2 hours with shaking in 3 milliliters of Krebs-Ringer bicarbonate solution containing one-half the normal calcium ion concentration, 60 micromoles of glucose, 0.5 microCurie of glucose-U^14 C, and 300 microunits of insulin, and 5% dimethyl sulfoxide (DMSO). The test compounds were added as a solution or suspension in DMSO and were present at a concentration of 100 micrograms per milliliter of the incubation mixture. The incubation was terminated by addition of 0.25 milliliter of 1 N sulfuric acid. The resulting mixture was extracted with a total of 25 milliliters of chloroform:methanol (2:1, v/v). The extracts were washed according to Folch et al. (J. Biol. […] The tests were conducted in triplicate and were accompanied by control tests in which all ingredients,proportions and conditions were the same except that no test compound was included. From the data obtained were calculated the percent inhibition of lipid synthesis by the test compound in each case. The data obtained from the tests were set out in Table I, as the percent inhibition of lipogenesis compared to the results obtained in the control tests wherein only the test compound was omitted.

SMILES | inhibition at 100 µg/mL [%]
CCOC(=O)C1CN(Cc2ccccc2)c2ccccc2O1 (stereo not drawn) [Compound 1, Ethyl 3,4-dihydro-4-benzyl-2H-1,4-benzoxazine-2-carboxylate] | 53
CCOC(=O)C1CNc2ccccc2O1 (stereo not drawn) [Compound 1A, 3,4-dihydro-2H-1,4-benzoxazine-2-carboxylic acid ethyl ester hydrochloride] | 62
CCOC(=O)C1CNc2cc(Cl)ccc2O1 (stereo not drawn) [Compound 2, Ethyl 6-chloro-3,4-dihydro-2H-1,4-benzoxazine-2-carboxylate] | 28
CCOC(=O)C1CNc2cc(C)ccc2O1 (stereo not drawn) [Compound 3, Ethyl 6-methyl-3,4-dihydro-2H-1,4-benzoxazine-2-carboxylate hydrochloride] | 18
CCOC(=O)C1CNc2cc([N+](=O)[O-])ccc2O1 (stereo not drawn) [Compound 4, ethyl 6-nitro-3,4-dihydro-2H-1,4-benzoxazine-2-carboxylate] | 74
CCOC(=O)C1CNc2cc(N)ccc2O1 (stereo not drawn) [Compound 5, ethyl 6-amino-3,4-dihydro-2H-1,4-benzoxazine-2-carboxylate hydrochloride] | 43
CCOC(=O)C1CNc2cc(NS(C)(=O)=O)ccc2O1 (stereo not drawn) [Compound 6, ethyl 3,4-dihydro-6-((methylsulfonyl)amino)-2H-1,4-benzoxazine-2-carboxylate] | 76
CCOC(=O)C1CNc2cc(C(F)(F)F)ccc2O1 (stereo not drawn) [Compound 7, ethyl 6-(trifluoromethyl)-3,4-dihydro-2H-1,4-benzoxazine-2-carboxylate] | 31
CCOC(=O)C1CNc2cc(OC)ccc2O1 (stereo not drawn) [Compound 8, ethyl 6-methoxy-2,3-dihydro-2H-1,4-benzoxazine-2-carboxylate] | 81
CCOC(=O)C1CNc2cc(Cl)c(Cl)cc2O1 (stereo not drawn) [Compound 9, ethyl 6,7-dichloro-2,3-dihydro-2H-1,4-benzoxazine-2-carboxylate] | 56
CCOC(=O)C1CNc2ccc(C)cc2O1 (stereo not drawn) [Compound 10, ethyl 7-methyl-3,4-dihydro-2H-1,4-benzoxazine-2-carboxylate] | 54
CCOC(=O)C1CNc2cc([N+](=O)[O-])cc(Cl)c2O1 (stereo not drawn) [Compound 11, ethyl 8-chloro-6-nitro-3,4-dihydro-2H-1,4-benzoxazine-2-carboxylate] | 31
CCOC(=O)C1CNc2cccc(Cl)c2O1 (stereo not drawn) [Compound 12, ethyl 8-chloro-3,4-dihydro-2H-1,4-benzoxazine-2-carboxylate] | 39
CCOC(=O)C1CNc2cc(-c3ccccc3)ccc2O1 (stereo not drawn) [Compound 13, ethyl 6-phenyl-3,4-dihydro-2H-1,4-benzoxazine-2-carboxylate] | 34
CCOC(=O)C1CNc2ccc([N+](=O)[O-])cc2O1 (stereo not drawn) [Compound 14, ethyl 7-nitro-3,4-dihydro-2H-1,4-benzoxazine-2-carboxylate] | 92
